Source: patent US20100152210A1, “PURINYL DERIVATIVES AND THEIR USE AS POTASSIUM CHANNEL MODULATORS” (NEURO SEARCH A/S/, priority 2007, published 2010)

Biological target: T1, hSK3 channels (Homo sapiens, UniProt Q9UGI6)
T1 construct: expressed in transfected cells; host or cells: HEK293
Test: Whole-cell patch-clamp recording of SK3 current in HEK293 cells expressing hSK3 channels
Assay type: cell-based
Procedure: The ionic current through small-conductance Ca^2+-activated K^+ channels (SK channels, subtype 3) is recorded using the whole-cell configuration of the patch-clamp technique in a classic patch-clamp set-up using HEK293 tissue culture cells expressing hSK3 channels as described in e.g. WO 2006/100212.
The SC100 value determined is defined as the Stimulating Concentration required for increasing the baseline current by 100%. The below SC100 value is an indication of the SK3 activating properties of the compounds of the invention.

Cc1cc(C)n(-c2nc(Nc3ccc(Cl)cc3)c3ncn(Cc4ccccc4)c3n2)n1 [Compound 9.1, [9-Benzyl-2-(3,5-dimethyl-pyrazol-1-yl)-9H-purin-6-yl]-(4-chloro-phenyl)-amine]
The SC100 (Stimulating Concentration required for increasing the baseline current by 100%): 0.04 µM
